assay: Log of liquid dish neat product liquid-air partition coefficient; format: physicochemical; conditions: not given

SMILES	Comment Code: Log of liquid dish neat product liquid-air partition coefficient
CC1(C)CCc2ccc(CCC=O)cc21 [Material 261]	K (Log of liquid dish neat product liquid-air partition coefficient greater than or equal to 7)
CC(=O)CCc1ccc(O)cc1 [Material 1002]	K (Log of liquid dish neat product liquid-air partition coefficient greater than or equal to 7)
COC1CC2CC1C1CC(C=O)CC21 (stereo not shown) [Material 1027]	K (Log of liquid dish neat product liquid-air partition coefficient greater than or equal to 7)
N#C/C=C/c1ccccc1 [Material 556]	K (Log of liquid dish neat product liquid-air partition coefficient greater than or equal to 7)
C=C1C2CCC(C)(C)C1CCC(OC)C2 (stereo not shown) [Material 7]	K (Log of liquid dish neat product liquid-air partition coefficient greater than or equal to 7)
CC(C)(C)C(=O)OC1CC2CC1C1CC=CC21 (stereo not shown) [Material 978]	K (Log of liquid dish neat product liquid-air partition coefficient greater than or equal to 7)
CC=Cc1ccc(OC(C)=O)c(OC)c1 [Material 213]	K (Log of liquid dish neat product liquid-air partition coefficient greater than or equal to 7)
CC(=O)OC1CC2CC1C1CC=CC21 (stereo not shown) [Material 281]	K (Log of liquid dish neat product liquid-air partition coefficient greater than or equal to 7)
O=Cc1ccc2c(c1)OCO2 [Material 287]	K (Log of liquid dish neat product liquid-air partition coefficient greater than or equal to 7)
CCCCCOC(=O)c1ccccc1 [Material 672]	K (Log of liquid dish neat product liquid-air partition coefficient greater than or equal to 7)
CC(C)C(=O)OC1CC2CCC1(C)C2(C)C (stereo not shown) [Material 229]	K (Log of liquid dish neat product liquid-air partition coefficient greater than or equal to 7)
CC1=CCCC2(C)CCC3CC12OC3(C)C (stereo not shown) [Material 726]	K (Log of liquid dish neat product liquid-air partition coefficient greater than or equal to 7)
CC(=O)OCCc1ccccc1 [Material 832]	K (Log of liquid dish neat product liquid-air partition coefficient greater than or equal to 7)

same assay, conditions: code letter within the Comment Code cell

SMILES	Log of liquid dish neat product liquid-air partition coefficient (Comment Code K/L)
O=COCC=Cc1ccccc1 [Material 551]	K (Log of liquid dish neat product liquid-air partition coefficient greater than or equal to 7)
CCOC(=O)C1OC1(C)c1ccccc1 (stereo not shown) [Material 377]	K (Log of liquid dish neat product liquid-air partition coefficient greater than or equal to 7)
CC1(C)CCc2ccc(CCC=O)cc21 [Material 261]	K (Log of liquid dish neat product liquid-air partition coefficient greater than or equal to 7)
C=CCCCCCCCCC#N [Material 352]	K (Log of liquid dish neat product liquid-air partition coefficient greater than or equal to 7)
Cc1ccc2c(c1)OCC(=O)CO2 [Material 17]	K (Log of liquid dish neat product liquid-air partition coefficient greater than or equal to 7)
CCCCCCCCCCOC(=O)CC [Material 471]	K (Log of liquid dish neat product liquid-air partition coefficient greater than or equal to 7)
Cc1ccc(C(C)(C)O)cc1 [Material 4]	K (Log of liquid dish neat product liquid-air partition coefficient greater than or equal to 7)
O=C1CCCCCCCCCC/C=C/CCO1 [Material 289]	K (Log of liquid dish neat product liquid-air partition coefficient greater than or equal to 7)
COC1CCCCCCCCCCC1 [Material 9]	K (Log of liquid dish neat product liquid-air partition coefficient greater than or equal to 7)
CCOC(=O)C1CCC(C(=O)OCC)CC1 (stereo not shown) [Material 347]	K (Log of liquid dish neat product liquid-air partition coefficient greater than or equal to 7)
CCC1=C(O)C(=O)C(C)O1 (stereo not shown) [Material 259]	K (Log of liquid dish neat product liquid-air partition coefficient greater than or equal to 7)
C=C1C2CCC(C)(C)C1CCC(OC)C2 (stereo not shown) [Material 7]	K (Log of liquid dish neat product liquid-air partition coefficient greater than or equal to 7)
c1ccc2c(c1)CC1COCOC21 (stereo not shown) [Material 247]	K (Log of liquid dish neat product liquid-air partition coefficient greater than or equal to 7)
CC(=O)OCC1CC=C(CCC=C(C)C)CC1 (stereo not shown) [Material 74]	K (Log of liquid dish neat product liquid-air partition coefficient greater than or equal to 7)
CC(O)CCc1ccccc1 (stereo not shown) [Material 98]	K (Log of liquid dish neat product liquid-air partition coefficient greater than or equal to 7)
CCCCCCCCCC(OCC)OCC [Material 473]	K (Log of liquid dish neat product liquid-air partition coefficient greater than or equal to 7)
CC=CC(=O)C1C(C)C=CCC1(C)C (stereo not shown) [Material 466]	K (Log of liquid dish neat product liquid-air partition coefficient greater than or equal to 7)
CC/C=C\CCOC(=O)c1ccccc1 [Material 541]	K (Log of liquid dish neat product liquid-air partition coefficient greater than or equal to 7)
C=CC(C)(O)CCC=C(C)CCC=C(C)C (stereo not shown) [Material 63]	K (Log of liquid dish neat product liquid-air partition coefficient greater than or equal to 7)
C=C1C=CC(C(C)C)CCC(C)=CCC1 (stereo not shown) [Material 296]	K (Log of liquid dish neat product liquid-air partition coefficient greater than or equal to 7)
CC(=O)OC1CC2CC1C1CC=CC21 (stereo not shown) [Material 281]	K (Log of liquid dish neat product liquid-air partition coefficient greater than or equal to 7)
C=CC1(C)CCC(C(C)(C)O)O1 (stereo not shown) [Material 156]	K (Log of liquid dish neat product liquid-air partition coefficient greater than or equal to 7)
CC(C)C(=O)OC1CC2CCC1(C)C2(C)C (stereo not shown) [Material 229]	K (Log of liquid dish neat product liquid-air partition coefficient greater than or equal to 7)
CC(=O)OCC=C(C)CCC=C(C)CCC=C(C)C [Material 368]	K (Log of liquid dish neat product liquid-air partition coefficient greater than or equal to 7)
COC(C=C(C)CCC=C(C)C)OC [Material 520]	K (Log of liquid dish neat product liquid-air partition coefficient greater than or equal to 7)
Cc1cccc(Oc2ccccc2)c1 [Material 114]	K (Log of liquid dish neat product liquid-air partition coefficient greater than or equal to 7)

same assay, conditions: code letters K/L of the Comment Code

SMILES	Log of liquid dish neat product liquid-air partition coefficient (Comment Code)
CC(=O)C1CC/C(C)=C\CC/C(C)=C\C/C=C/1C (stereo not shown) [Material 1095]	K (Log of liquid dish neat product liquid-air partition coefficient greater than or equal to 7)
CCC=CCC=CCCO [Material 929]	K (Log of liquid dish neat product liquid-air partition coefficient greater than or equal to 7)
C=CC(C)=CCC=C(C)CCC=C(C)C=O [Material 691]	K (Log of liquid dish neat product liquid-air partition coefficient greater than or equal to 7)
C=C1C2CCC(C)(OCC)C1CCC2(C)C (stereo not shown) [Material 606]	K (Log of liquid dish neat product liquid-air partition coefficient greater than or equal to 7)
CCCCC/C=C/C=C\C(=O)OCC [Material 951]	K (Log of liquid dish neat product liquid-air partition coefficient greater than or equal to 7)
CC(=O)c1cc(C(C)(C)C)cc2c1CCC2(C)C [Material 563]	K (Log of liquid dish neat product liquid-air partition coefficient greater than or equal to 7)
CC(C)=CCCC(C)c1ccc(C)cc1 (stereo not shown) [Material 713]	K (Log of liquid dish neat product liquid-air partition coefficient greater than or equal to 7)
CCC(=O)OC(C)(C)C1CC=C(C)CC1 (stereo not shown) [Material 686]	K (Log of liquid dish neat product liquid-air partition coefficient greater than or equal to 7)
CC1=C2CCC(C)C2CC(C(C)(C)O)CC1 (stereo not shown) [Material 920]	K (Log of liquid dish neat product liquid-air partition coefficient greater than or equal to 7)
c1ccc(CCOC2CCCCC2)cc1 [Material 953]	K (Log of liquid dish neat product liquid-air partition coefficient greater than or equal to 7)
COC1CC2CC1C1CC(C=O)CC21 (stereo not shown) [Material 1027]	K (Log of liquid dish neat product liquid-air partition coefficient greater than or equal to 7)
CC(C)(C)C(=O)OC1CC2CC1C1CC=CC21 (stereo not shown) [Material 978]	K (Log of liquid dish neat product liquid-air partition coefficient greater than or equal to 7)
CC(C)=CCCC1=CCC(C)(C=O)CC1 (stereo not shown) [Material 988]	K (Log of liquid dish neat product liquid-air partition coefficient greater than or equal to 7)
CCCOC(C)OCCc1ccccc1 (stereo not shown) [Material 766]	K (Log of liquid dish neat product liquid-air partition coefficient greater than or equal to 7)
CC1=CCCC2(C)CCC3CC12OC3(C)C (stereo not shown) [Material 726]	K (Log of liquid dish neat product liquid-air partition coefficient greater than or equal to 7)
C=C1CCCC(C)(C)C1C=C(C)C(C)=O (stereo not shown) [Material 913]	K (Log of liquid dish neat product liquid-air partition coefficient greater than or equal to 7)
